Laboratory results published in ChEMBL document CHEMBL6134838, “Discovery of c-Kit as a New Therapeutic Target in LPS-Induced Acute Lung Injury through Novel Phenylamide Derivative D9” (J Med Chem, 2025).

System: J774.A1
Assay: cells
Conditions: Mus musculus, J774.A1, 24 h
Description: Antiinflammatory activity against mouse J774.A1 cells assessed as inhibition of LPS-stimulated IL-6 release measured for 24 hrs by ELISA method

Row | Compound | IC50 [µM]
1 | O=C(NCCCN1CCOCC1)c1cc(Oc2ccc(NC(=O)c3cn(-c4ccc(Br)cc4)c4ccccc4c3=O)cc2F)ccn1 | 6.16

System: not listed separately
Assay: Cytotoxicity against mouse J774.A1 cells assessed as survival rate at 10 uM measured for 48 hrs by MTT assay relative to control
Conditions: not given

Row | Compound | viability at 48 h, 10 µM [%]
2 | O=C(NCCCN1CCOCC1)c1cc(Oc2ccc(NC(=O)c3cn(-c4ccc(Br)cc4F)c4ccccc4c3=O)cc2)ccn1 | 92.2
3 | O=C(NCCCN1CCOCC1)c1cc(Oc2ccc(NC(=O)c3cn(-c4ccccc4)c4ccccc4c3=O)cc2)ccn1 | 82.7
4 | O=C(NCCc1cccs1)c1cc(Oc2ccc(NC(=O)c3cn(-c4ccc(Br)cc4)c4ccccc4c3=O)cc2)ccn1 | 84.4
5 | O=C(NCCCN1CCOCC1)c1cc(Oc2ccc(NC(=O)c3cn(-c4ccc(F)c(Cl)c4)c4ccccc4c3=O)cc2F)ccn1 | > 100
6 | O=C(NCCc1cccs1)c1cc(Oc2ccc(NC(=O)c3cn(-c4ccc(Br)cc4)c4ccccc4c3=O)cc2F)ccn1 | 84.3
7 | O=C(NCCc1cccs1)c1cc(Oc2ccc(NC(=O)c3cn(-c4ccccc4)c4ccccc4c3=O)cc2)ccn1 | 72
8 | O=C(NCCCN1CCOCC1)c1cc(Oc2ccc(NC(=O)c3cn(-c4ccc(Cl)cc4)c4ccccc4c3=O)cc2F)ccn1 | 77.8
9 | COc1ccc(-n2cc(C(=O)Nc3ccc(Oc4ccnc(C(=O)NCCc5cccs5)c4)cc3)c(=O)c3ccccc32)cc1 | 88.3
10 | O=C(NCCc1cccs1)c1cc(Oc2ccc(NC(=O)c3cn(-c4ccc(Br)cc4F)c4ccccc4c3=O)cc2F)ccn1 | 97.1
11 | COc1ccc(-n2cc(C(=O)Nc3ccc(Oc4ccnc(C(=O)NCCCN5CCOCC5)c4)cc3)c(=O)c3ccccc32)cc1 | 87
12 | O=C(NCCCN1CCOCC1)c1cc(Oc2ccc(NC(=O)c3cn(-c4ccc(Br)cc4)c4ccccc4c3=O)cc2)ccn1 | > 100
13 | O=C(NCCCN1CCOCC1)c1cc(Oc2ccc(NC(=O)c3cn(-c4ccc(Br)cc4)c4ccccc4c3=O)cc2F)ccn1 | 91.3
14 | O=C(NCCc1cccs1)c1cc(Oc2ccc(NC(=O)c3cn(-c4ccc(Cl)cc4)c4ccccc4c3=O)cc2)ccn1 | 86.2
15 | O=C(NCCc1cccs1)c1cc(Oc2ccc(NC(=O)c3cn(-c4ccccc4)c4ccccc4c3=O)cc2F)ccn1 | 99.8
16 | O=C(NCCCN1CCOCC1)c1cc(Oc2ccc(NC(=O)c3cn(-c4ccccc4)c4ccccc4c3=O)cc2F)ccn1 | 83.2
17 | O=C(NCCc1cccs1)c1cc(Oc2ccc(NC(=O)c3cn(-c4ccc(Br)cc4F)c4ccccc4c3=O)cc2)ccn1 | 92.8
18 | COc1ccc(-n2cc(C(=O)Nc3ccc(Oc4ccnc(C(=O)NCCc5cccs5)c4)c(F)c3)c(=O)c3ccccc32)cc1 | 85.3
19 | O=C(NCCc1cccs1)c1cc(Oc2ccc(NC(=O)c3cn(-c4ccc(F)c(Cl)c4)c4ccccc4c3=O)cc2)ccn1 | > 100
20 | O=C(NCCCN1CCOCC1)c1cc(Oc2ccc(NC(=O)c3cn(-c4ccc(F)c(Cl)c4)c4ccccc4c3=O)cc2)ccn1 | > 100
21 | O=C(NCCc1cccs1)c1cc(Oc2ccc(NC(=O)c3cn(-c4ccc(Cl)cc4)c4ccccc4c3=O)cc2F)ccn1 | 7.46
22 | O=C(NCCCN1CCOCC1)c1cc(Oc2ccc(NC(=O)c3cn(-c4ccc(F)cc4)c4ccccc4c3=O)cc2F)ccn1 | 94.1
23 | O=C(NCCCN1CCOCC1)c1cc(Oc2ccc(NC(=O)c3cn(-c4ccc(Cl)cc4)c4ccccc4c3=O)cc2)ccn1 | > 100
24 | O=C(NCCc1cccs1)c1cc(Oc2ccc(NC(=O)c3cn(-c4ccc(F)cc4)c4ccccc4c3=O)cc2F)ccn1 | > 100
25 | COc1ccc(-n2cc(C(=O)Nc3ccc(Oc4ccnc(C(=O)NCCCN5CCOCC5)c4)c(F)c3)c(=O)c3ccccc32)cc1 | 22.9
26 | O=C(NCCCN1CCOCC1)c1cc(Oc2ccc(NC(=O)c3cn(-c4ccc(Br)cc4F)c4ccccc4c3=O)cc2F)ccn1 | 90.7
27 | O=C(NCCc1cccs1)c1cc(Oc2ccc(NC(=O)c3cn(-c4ccc(F)c(Cl)c4)c4ccccc4c3=O)cc2F)ccn1 | 77.7
28 | O=C(NCCCN1CCOCC1)c1cc(Oc2ccc(NC(=O)c3cn(-c4ccc(F)cc4)c4ccccc4c3=O)cc2)ccn1 | 87.1
29 | COc1cc(/C=C/C(=O)CC(=O)/C=C/c2ccc(O)c(OC)c2)ccc1O [CURCUMIN] | 94.9
